# Laboratory results as given in PubChem BioAssay (NCI).
# “And” between values parts separate entries of the source, which are not always exact repeats. Equal values may be shown once.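 All cell lines were grown in 96-well plates and treated with compound for 48 hours. GI50 marks 50% less growth. The concentration for full growth arrest is given as TGI.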
# Assays:
# Assay in all cases: NCI tumour cell line growth inhibition, 48 h
# HCT-15 colon = test system: HCT-15 colon
# HL-60(TB) leukemia = test system: HL-60(TB) leukemia
# IGROV1 ovarian = test system: IGROV1 ovarian
# KM12 colon = test system: KM12 colon
# MCF7 breast = test system: MCF7 breast
# MOLT-4 leukemia = test system: MOLT-4 leukemia
# OVCAR-4 ovarian = test system: OVCAR-4 ovarian
# OVCAR-5 ovarian = test system: OVCAR-5 ovarian
# SF-295 CNS = test system: SF-295 CNS
# UACC-62 melanoma = test system: UACC-62 melanoma
Compound,GI50 (HCT-15 colon),TGI (HCT-15 colon),GI50 (HL-60(TB) leukemia),TGI (HL-60(TB) leukemia),GI50 (IGROV1 ovarian),TGI (IGROV1 ovarian),GI50 (KM12 colon),TGI (KM12 colon),GI50 (MCF7 breast),TGI (MCF7 breast),GI50 (MOLT-4 leukemia),TGI (MOLT-4 leukemia),GI50 (OVCAR-4 ovarian),TGI (OVCAR-4 ovarian),GI50 (OVCAR-5 ovarian),TGI (OVCAR-5 ovarian),GI50 (SF-295 CNS),TGI (SF-295 CNS),GI50 (UACC-62 melanoma) [µM],TGI (UACC-62 melanoma)
CC1=C(C(=O)OCc2ccccc2)C(c2ccc3c(c2)OCO3)n2c(nc3ccccc32)N1 (configuration not stated),0.36 µM,> 100 µM,0.341 µM,> 100 µM,0.644 µM,> 100 µM,0.334 µM,> 100 µM,0.236 µM,> 100 µM,0.753 µM,> 100 µM,13.3 µM,> 100 µM,> 100 µM,> 100 µM,0.321 µM,> 100 µM,0.513,> 100 µM
Cc1cc(N2CCCCC2)nc(N(CCNc2ccnc3cc(Cl)ccc23)Cc2ccco2)n1,1.44 µM,3.3 µM,1.91 µM,3.94 µM,1.28 µM,3.65 µM,2.07 µM,4.71 µM,1.59 µM,3.19 µM,2.29 µM,5.31 µM,1.8 µM,4.42 µM,2.4 µM,6.84 µM,1.51 µM,3.12 µM,1.74,3.34 µM
N#CC(C#N)=Cc1ccc(-c2ccc(-c3nc4ccccc4s3)cc2)o1,11.9 µM,50.4 µM,37.4 µM,> 100 µM,3.7 µM,56.3 µM,16.9 µM,> 100 µM,6.2 µM,> 100 µM,14 µM,> 100 µM,30.5 µM,> 100 µM,11.9 µM,24.2 µM,20.7 µM,46 µM,21.7,70.3 µM
N#CSc1ncnc2nc[nH]c12,8.82 µM,> 100 µM,5.5 µM,> 100 µM,35.1 µM,> 100 µM,3.26 µM,> 48.5 µM,2.35 µM,> 79.4 µM,4.28 µM,> 100 µM,2.37 µM,> 100 µM,17.2 µM,> 100 µM,2.53 µM,> 72.6 µM,4.1,> 100 µM
CC12CCC=CC1CCC1C2CCC2(C)C(c3ccc(=O)oc3)CCC12O (configuration not stated),0.0923 µM,0.428 µM,0.0257 µM,0.0689 µM,0.0688 µM,1.36 µM,0.134 µM,1.45 µM,0.0766 µM,1.18 µM,0.0282 µM,0.0967 µM,0.167 µM,0.641 µM,0.176 µM,0.485 µM,0.044 µM,0.248 µM,0.221,0.723 µM
OCC1OC(n2ccc3c2ncn2ncnc32)C(O)C1O (configuration not stated),0.47 µM,> 100 µM,0.854 µM,5.5 µM,3.73 µM,> 47.4 µM,2.42 µM,> 100 µM,0.183 µM,20.4 µM,0.407 µM,> 43.1 µM,5.1 µM,63.1 µM,1.19 µM,> 100 µM,1.13 µM,> 59.8 µM,8.42,> 100 µM
CCc1c(C)[nH]c(/C=C2\N=C(c3ccc[nH]3)C=C2OC)c1C,0.0935 µM,3.75 µM,0.127 µM,2.1 µM,0.274 µM,3.53 µM,0.0944 µM,5.26 µM,0.4 µM,6.93 µM,< 0.0394 µM,4.18 µM,0.893 µM,12.5 µM,0.413 µM,7.3 µM,0.747 µM,3.03 µM,0.341,1.59 µM
COc1cc(Cn2cc3c(c2)-c2oncc2CC3)cc(OC)c1OC,0.0415 µM,> 100 µM,< 0.0177 µM,0.456 µM,0.0456 µM,24.8 µM,0.0312 µM,–,0.0324 µM,> 100 µM,0.0338 µM,13.1 µM,0.152 µM,> 100 µM,0.0735 µM,> 100 µM,0.0185 µM,0.059 µM,0.0362,> 81.7 µM
CC(C)(O)c1ccc(N2CCN(c3nnc(Cc4ccccc4)c4ccccc34)CC2)nc1,8.31 µM,28.7 µM,7.44 µM,31.1 µM,12.1 µM,28.4 µM,13.2 µM,29.5 µM,7.05 µM,21.7 µM,5.4 µM,25.7 µM,3.99 µM,26.3 µM,17.2 µM,38.9 µM,4.16 µM,16.7 µM,8.44,21.9 µM
CC12CCC(=O)C=C1CCC1C2CCC2(C)C(C(=O)Cn3cnc4c(=S)nc[nH]c43)CCC12 (configuration not stated),–,> 100 µM,–,> 100 µM,–,> 100 µM,–,> 100 µM,–,36.7 µM,–,> 100 µM,–,55 µM,–,> 100 µM,–,86.7 µM,–,> 100 µM
Nc1nc(/C=C\c2ccc([N+](=O)[O-])o2)nc(N2CCN(c3ccccc3)CC2)n1,2.77 µM,11.9 µM,7.73 µM,61.8 µM,5.31 µM,32.3 µM,11.5 µM,62.9 µM,3.07 µM,29.1 µM,8.39 µM,> 100 µM,27.2 µM,> 100 µM,31.5 µM,62.5 µM,22.1 µM,73.8 µM,7.36,25.8 µM
O=C1c2ccccc2C(=O)N1CC1(C(=O)O)NCCS1(=O)=O (configuration not stated),–,> 100 µM,–,> 100 µM,–,> 100 µM,–,> 100 µM,–,> 100 µM,–,> 100 µM,–,> 100 µM,–,> 100 µM,–,> 100 µM,–,> 100 µM
N#Cc1ncc(/N=C/c2ccc(N(CCCl)CCCl)cc2)s1,21.8 µM,> 100 µM,7.44 µM,> 100 µM,40.4 µM,> 100 µM,76.5 µM,> 100 µM,8.85 µM,> 100 µM,10.6 µM,> 100 µM,41.8 µM,> 100 µM,17.5 µM,> 100 µM,–,–,3.09,28.7 µM
CCCN(Cc1ccc(F)cc1)c1ccc(CO)c(Cl)c1,5.35 µM,19.8 µM,3.27 µM,19.2 µM,0.0897 µM,0.39 µM,13 µM,27.3 µM,0.375 µM,12.9 µM,11.2 µM,30.1 µM,0.4 µM,7.9 µM,0.168 µM,0.528 µM,1.41 µM,9.65 µM,0.167,0.907 µM
CC[C@H](Nc1nc(N)nc(C)c1C#N)c1nc2cccc(CN(C)c3ncc(C(=O)NO)cn3)c2c(=O)n1-c1ccccc1,2.11 µM,12 µM,0.262 µM,3.48 µM,0.569 µM,2.28 µM,1.26 µM,5.21 µM,0.915 µM,> 24.5 µM,0.204 µM,> 50 µM,1.01 µM,6.56 µM,0.678 µM,3.05 µM,1.28 µM,3.81 µM,0.199,0.897 µM
CSc1nnc(CCSc2ccnc3c(C(F)(F)F)cccc23)o1,> 100 µM,> 100 µM,55.1 µM,> 100 µM,83.2 µM,> 100 µM,> 100 µM,> 100 µM,> 100 µM,> 100 µM,27.7 µM,> 100 µM,40.7 µM,> 100 µM,> 100 µM,> 100 µM,59.8 µM,> 100 µM,> 100,> 100 µM
C=C(C)[C@@H]1CC[C@]2(C(=O)NCCCN)CC[C@]3(C)[C@H](CC[C@@H]4[C@@]5(C)CC[C@H](O)C(C)(C)[C@@H]5CC[C@]43C)[C@@H]12,21.7 µM,> 100 µM,16.5 µM,50.7 µM,21.5 µM,> 100 µM,17.3 µM,52.9 µM,10.7 µM,95.8 µM,12.9 µM,52.8 µM,25.6 µM,> 100 µM,14.8 µM,31.3 µM,22.6 µM,67.3 µM,27.4,93.2 µM
COc1cccc(C2=C(c3cn(C)c4ccccc34)C(=O)NC2=O)c1,5.57 µM,> 25 µM,11.2 µM,> 25 µM,21.8 µM,> 25 µM,8.45 µM,> 25 µM,6.35 µM,> 25 µM,8.54 µM,> 25 µM,9.61 µM,> 25 µM,> 25 µM,> 25 µM,11 µM,> 25 µM,11.5,> 25 µM
COc1ccc(Cn2nc(-c3cc(OC)c(OC)c(OC)c3)c3c2CCc2cnoc2-3)cc1OC,4.98 µM,> 100 µM,0.113 µM,2.28 µM,7.28 µM,> 100 µM,3.89 µM,37.6 µM,3.45 µM,18.3 µM,3.76 µM,> 100 µM,4.96 µM,83.9 µM,26.6 µM,> 100 µM,–,–,3.78,56.5 µM
CCn1c(-c2nonc2N)nc2cncc(C(=O)N3CCNCC3)c21,> 25 µM,> 25 µM,> 25 µM,> 25 µM,> 25 µM,> 25 µM,> 25 µM,> 25 µM,> 25 µM,> 25 µM,> 25 µM,> 25 µM,> 25 µM,> 25 µM,> 25 µM,> 25 µM,> 25 µM,> 25 µM,> 25,> 25 µM
O=C(Nc1cccc(Cl)c1)Nc1ncc(CCNc2ncnc3ccsc23)s1,2.99 µM and 1.79 µM,20.4 µM and > 10 µM,4.93 µM and 3.37 µM,28.9 µM and > 10 µM,7.43 µM and 3.6 µM,44.1 µM and > 10 µM,0.12 µM and 0.0657 µM,> 35.3 µM,1.17 µM and 1.31 µM,15 µM and > 10 µM,2.85 µM and 1.73 µM,> 27.8 µM and 4.99 µM,2.1 µM and 2.93 µM,11.9 µM and > 10 µM,9.88 µM and > 10 µM,25.5 µM and > 10 µM,0.215 µM and 0.593 µM,16.9 µM and > 10 µM,1.1,11.7 µM
Fc1ccc2[nH]cc(Cc3c[nH]c4ccc(F)cc34)c2c1,17.5 µM,55.6 µM,37.4 µM,> 100 µM,16.9 µM,41.6 µM,12 µM,30.2 µM,35.6 µM,> 100 µM,1.97 µM,22.1 µM,32 µM,> 100 µM,17.5 µM,38 µM,20.6 µM,47.9 µM,12,28.3 µM
O=c1cc(CNc2cc(F)cc(F)c2)c2ccc(I)cc2[nH]1,0.387 µM,> 100 µM,0.337 µM,> 51.1 µM,2.56 µM,> 100 µM,0.423 µM,> 100 µM,0.388 µM,> 100 µM,1.06 µM,> 100 µM,72.7 µM,> 100 µM,16.2 µM,> 100 µM,0.441 µM,> 100 µM,0.508,> 100 µM
COc1cc2nc(Cl)nc(Nc3cccc(C(=O)/C=C/c4ccccc4)c3)c2cc1OC,2.88 µM,> 100 µM,3.61 µM,> 100 µM,4.45 µM,42.9 µM,2.45 µM,> 100 µM,1.81 µM,> 100 µM,2.77 µM,> 100 µM,5.5 µM,33.3 µM,8.79 µM,> 100 µM,–,> 44.2 µM,2.55,10.1 µM
C=C(C)[C@@H]1CC=C(CO)CC1,> 10 µM,> 10 µM and 790 µM,> 10 µM,> 10 µM and 267 µM,> 10 µM,> 10 µM and 1260 µM,> 10 µM,> 10 µM and 1050 µM,–,> 10 µM,> 10 µM,> 10 µM and 1050 µM,> 10 µM,> 10 µM and 1130 µM,> 10 µM,> 10 µM and 798 µM,> 10 µM,> 10 µM and 941 µM,> 10,> 10 µM and 964 µM
CC1=CC(=O)c2c(O)cccc2C1=O,–,–,–,0.398 µM,–,3.33 µM,–,19.5 µM,–,3.9 µM,–,0.762 µM,–,3.26 µM,–,3.78 µM,–,23.9 µM,–,3.4 µM
